Entries after “also recorded” stand apart in the source; their conditions may differ. Counter-ions that a name gives are not always drawn.
System: humanen Magenkarzinomzellen (MKN-45)
Test: Apoptosis induction in MKN-45 tumour cells after catalase inhibition; percentage of cells with apoptosis features counted by phase-contrast microscopy
Format: cell-based, human
Conditions: for Effect on the consequence of the 3-AT pretreatment (no lag phase, independence from aquaporins): inhibitor present during 1 h pretreatment with 3-AT (Figur 3B)
From the text: Erfindungsgemäß wurden verschiedene Experimente mit humanen Magenkarzinomzellen (MKN-45) durchgeführt. Die experimentellen Einzelheiten der Versuche sind in der Literaturstelle Heinzelmann und Bauer, Biol. Chem. (2010) 391, S. 675-693 detailliert beschrieben. Auf die experimentelle Ausgestaltung wird hiermit ausdrücklich verwiesen.
In der Literaturstelle Heinzelmann und Bauer sind die Herkunft der jeweiligen Zellen, deren Anzuchtbedingungen, die Apoptoseinduktion und deren Messung beschrieben. Die membranständige Katalase wurde mit 3-Aminotriazol (3-AT) gehemmt. Spezifische Inhibitoren, die die Differenzierung zwischen dem reaktiven NO/Peroxynitritweg und dem HOCI-Weg erlauben, sind weiterhin in der Literaturstelle Heinzelmann und Bauer (a.a.o.) offenbart. Bei den einzelnen Auswertungen wurde die Apoptoseinduktion über die Quantifizierung des Prozentsatzes derjenigen Zellen bestimmt, die die Apoptosemerkmale Kernkondensation, Kernfragmentation und/oder Membrane-Blebbing aufwiesen. Die Quantifizierung erfolgte jeweils mit Hilfe eines Phasenkontrast-Umkehrmikroskops.

[1] = inhibitor added to 3-AT, whole 3-AT concentration range (Figur 1A, 1C)
[2] = inhibitor added to 3-AT, higher 3-AT concentration range (Figur 1A, 1B)

## NCCc1ccc(S(=O)(=O)F)cc1 [AEBSF, 4-(2-Aminoethyl)benzenesulfonyl fluoride]
[1]
  Hemmung der Apoptoseinduktion: gehemmt; also recorded: vollständigen Hemmung der Apoptose
  Effect on the consequence of the 3-AT pretreatment (no lag phase, independence from aquaporins): führt die Vorbehandlung nicht zu der unter A gezeigten Konsequenz

## COc1cccc(C=NCCN=Cc2cccc(OC)c2[O-])c1[O-].[Cl-].[Mn+3] [EUK-134]
[2]
  Hemmung der Apoptoseinduktion: nur in diesem Bereich zur Hemmung; also recorded: hemmt nur die durch höhere Konzentrationen an 3-AT induzierte Apoptose
  Effect on the consequence of the 3-AT pretreatment (no lag phase, independence from aquaporins): führt die Vorbehandlung nicht zu der unter A gezeigten Konsequenz

## Cl.O=S(=O)([O-])c1ccc(-c2c3nc(c(-c4ccc(S(=O)(=O)O)cc4)c4ccc([nH]4)c(-c4ccc(S(=O)(=O)O)cc4)c4nc(c(-c5ccc(S(=O)(=O)O)cc5)c5ccc2[nH]5)C=C4)C=C3)cc1.[Fe] [FeTPPS, 5-, 10-, 15-, 20-Tetrakis(4-sulfonatophenyl)porphyrinato iron(III) chloride]
Cells not pretreated, range 3-6 nM 3-AT (Figur 6A)
  Hemmung der Apoptoseinduktion: geringfügigen Anteil des NO/Peroxynitritwegs
Inhibitor added to 3-AT, low 3-AT concentration range (Figur 1B)
  Hemmung der Apoptoseinduktion: zur Hemmung; also recorded: Hemmung der Apoptose im niedrigeren 3-AT Konzentrationsbereich

## COC(=O)[C@@H](N)CCCNC(=N)N[N+](=O)[O-] [L-NAME, N-omega-nitro-L-arginine methylester hydrochloride]
Inhibitor added to 3-AT, low 3-AT concentration range (Figur 1B), hydrochloride
  Hemmung der Apoptoseinduktion: zur Hemmung; also recorded: Hemmung der Apoptose im niedrigeren 3-AT Konzentrationsbereich

## OC[C@@H](O)[C@@H](O)[C@H](O)[C@H](O)CO [Mannitol]
[1]
  Hemmung der Apoptoseinduktion: gehemmt; also recorded: Hemmung der Apoptoseinduktion

## [Ag+] [Silberionen]
1 h preincubation with 100 mM 3-AT, wash, 3-AT again with Silberionen (Figur 3A)
  Hemmung der Apoptoseinduktion: nicht mehr durch Silberionen zu hemmen
1 h preincubation without 3-AT, wash, then 3-AT with Silberionen (Figur 3A)
  Hemmung der Apoptoseinduktion: daher durch Silberionen zu hemmen
Silberionen 5 µM added before 3-AT 100 mM (Figur 2A)
  Hemmung der Apoptoseinduktion: blockiert die Apoptoseinduktion fast vollständig; also recorded: nur dann vollständig wirkt
Silberionen 5 µM added later, after 3-AT 100 mM (Figur 2A)
  Hemmung der Apoptoseinduktion: wirken schwächer oder gar nicht
Silberionen 5 µM added to 3-AT concentration series (Figur 1D, 4A)
  Hemmung der Apoptoseinduktion: hemmen die Apoptose vollständig; also recorded: durch Silberionen gehemmt; also recorded: blockieren die Apoptoseinduktion vollständig

## O=C(O)c1cc(/N=N/c2ccc(S(=O)(=O)Nc3ccccn3)cc2)ccc1O [Sulfasalazin]
14 h pretreatment with rising concentrations of Sulfasalazin, then 3-AT (Figur 4B-D)
  Abhängigkeit der Apoptoseinduktion von der Aquaporinwirkung (Hemmbarkeit durch Silberionen): ersetzt graduell die Wirkung der Aquaporine; also recorded: in steigendem Umfang von der Aktivität der Aquaporine unabhängig
Sulfasalazin and 3-AT given at the same time (Figur 5B)
  Synergieeffekt mit 3-AT: bleibt dieser Synergieeffekt aus; also recorded: nicht ausreichend für die Induktion eines Synergieeffekts
After Sulfasalazin pretreatment (Figur 4)
  Absenkung der 3-AT-Konzentration bei gleichbleibendem Effekt: ca. zehnfacher Absenkung
Pretreatment of the cells with Sulfasalazin, then 3-AT (Figur 5A, 4A vs 4D)
  Synergieeffekt mit 3-AT: konzentrationsabhängig zu einem Synergieeffekt; also recorded: Synergieeffekt zwischen 3-AT- und Sulfasalazinwirkung
Pretreatment with 100 µM Sulfasalazin, then 3-AT (Figur 4D)
  Abhängigkeit von der Aquaporinwirkung: vollständig aufgehoben
Pretreatment with 100 µM Sulfasalazin, then 3-AT, profile with FeTPPS and Taurin (Figur 6B)
  Signalweg der Apoptoseinduktion beim Synergieeffekt: vollständig durch den NO/Peroxynitritweg bedingt; also recorded: lediglich zu einer Verstärkung des NO/Peroxynitritwegs geführt

## NCCS(=O)(=O)O [Taurin]
Taurin added two hours after 3-AT (Figur 2B)
  Hemmung der Apoptoseinduktion: sofortigen Abbruch der Apoptoseinduktion; also recorded: erfolgreichen und sofortigen Hemmung der Apoptoseinduktion
Cells not pretreated, range 0.7 und 6 mM 3-AT (Figur 6A)
  Steigerung der Apoptose: Steigerung der Apoptose
[2]
  Hemmung der Apoptoseinduktion: im höheren Konzentrationsbereich; also recorded: spezifisch Apoptose hemmen, die durch höhere Konzentrationen an 3-AT induziert wurde
